Values quoted from earlier work, collected in US20080227813A1, “Pharmaceutical compositions and methods for treating diseases associated with neurodegeneration” (priority 2006, published 2008).

System: patients suffering from ALS
Details: riluzole alone, previous studies; cited from earlier work

SMILES: Nc1nc2ccc(OC(F)(F)F)cc2s1 [riluzole, Riluzole]
- effect on VC: failed to demonstrate any effect
